Results published in patent US20220002267A1, “TYROSINE KINASE 2 INHIBITORS, PREPARATION METHODS AND MEDICINAL USES THEREOF” (Eternity Bioscience Inc., priority 2020, published 2022).

Legend:
Tyk2 JH2 Pseudokinase = biological target: T1, Tyk2 JH2 Pseudokinase (Homo sapiens, UniProt P29597); assay: KdELECT Competition Binding Assay; details: 11-point 3-fold dilution series; performed by Eurofins DiscoverX
T1 construct: purchased Eurofins DiscoverX Corporation (CRO); host or cells: E. coli BL21-derived host (T7 phage) or HEK-293 cells
Protocol: The KdELECT Competition Binding Assay is performed by a CRO, Eurofins DiscoverX Corporation following the established standard protocol (DiscoverX, San Diego, Calif.). Briefly, Kinase-tagged T7 phage strains were prepared in an E. coli host derived from the BL21 strain. E. coli were grown to log-phase and infected with T7 phage and incubated with shaking at 32° C. until lysis. The lysates were centrifuged and filtered to remove cell debris. The remaining kinases were produced in HEK-293 cells and subsequently tagged with DNA for qPCR detection. Streptavidin-coated magnetic beads were treated with biotinylated small molecule ligands for 30 minutes at room temperature to generate affinity resins for kinase assays. The liganded beads were blocked with excess biotin and washed with blocking buffer (SeaBlock (Pierce), 1% BSA, 0.05% Tween 20, 1 mM DTT) to remove unbound ligand and to reduce nonspecific binding. Binding reactions were assembled by combining kinases, liganded affinity beads, and test compounds in 1× binding buffer (20% SeaBlock, 0.17×PBS, 0.05% Tween 20, 6 mM DTT). Test compounds were prepared as 111-fold stocks in 100% DMSO. Kds were determined using an 11-point 3-fold compound dilution series with three DMSO control points. All compounds for Kd measurements are distributed by acoustic transfer (non-contact dispensing) in 100% DMSO. The compounds were then diluted directly into the assays such that the final concentration of DMSO was 0.9%. All reactions performed in polypropylene 384-well plate. Each was a final volume of 0.02 mL. The assay plates were incubated at room temperature with shaking for 1 hour and the affinity beads were washed with wash buffer (1×PBS, 0.05% Tween 20). The beads were then re-suspended in elution buffer (1×PBS, 0.05% Tween 20, 0.5 μM non-biotinylated affinity ligand) and incubated at room temperature with shaking for 30 minutes. The kinase concentration in the eluates was measured by quantitative PCR.
Compound Handling: An 11-point 3-fold serial dilution of each test compound was prepared in 100% DMSO at 100-fold final test concentration and subsequently diluted to 1-fold in the assay (final DMSO concentration=1%). Most Kds were determined using a compound top concentration=30,000 nM. If the initial Kd determined was <0.5 nM (the lowest concentration tested), the measurement was repeated with a serial dilution starting at a lower top concentration.

[1] = tested on: Tyk2-mediated, IL23-induced STAT3 phosphorylation in human Kit225 T cell line; assay: IL-23_Kit225 T Cell Assay (phosphorylated-STAT3, AlphaLISA); format: cell-based; details: Kit225 cells, compound 1 hour, human recombinant IL-23 20 minutes, pSTAT3
Protocol: (§1) Kit225 cells (licensed from Professor Toshiyuki Hori, Ritsumeikan University, Japan) were seeded in 384-well plate at a density of 1×10^5 cells/well in 4 μL Hank's Balanced Salt Solution (HBSS, Gibco), and incubated for 2 hours in a humidified, 5% CO2 cell culture incubator at 37° C. The cells were treated with serial diluted compounds for 1 hour and stimulated with human recombinant IL-23 (R&D Systems) for 20 minutes. The treated cells were then lysed and cellular phosphorylated-STAT3 levels were measured by AlphaLISA (PerkinElmer) according to the manufacture's instructions. Inhibition data were calculated by comparison to vehicle control wells for 0% inhibition and non-stimulated control wells for 100% inhibition. Dose response curves were then generated to determine the concentration required to suppress 50% of cellular response (IC50) as derived by non-linear regression analysis using GraphPad Prism.

[2] = tested on: Tyk2-mediated, IFNα-induced STAT1 phosphorylation in human Kit225 T cell line; assay: IFNα_Kit225 T Cell Assay (phosphorylated-STAT1, AlphaLISA); format: cell-based; details: Kit225 cells, compound 1 hour, human recombinant IFNα 20 minutes, pSTAT1; read-out: IFN-α Kit225 (IC50)
Protocol: as §1, with “cells” for “cells (licensed from Professor Toshiyuki Hori, Ritsumeikan University, Japan)”, “0.5×10^5” for “1×10^5”, “HBSS,” for “Hank's Balanced Salt Solution (HBSS, Gibco),”, “IFNα (Biolegend)” for “IL-23 (R&D Systems)”, “phosphorylated-STAT1” for “phosphorylated-STAT3”

[3] = tested on: IL-12/IL-23 and Type I IFN pathways; details: Tokarski et al. 2015; cited from earlier work
[4] = tested on: experimental autoimmune disease models (psoriasis, SLE, and IBD); details: cited from earlier work

T1 sequence (P29597 589-875 limits assumed): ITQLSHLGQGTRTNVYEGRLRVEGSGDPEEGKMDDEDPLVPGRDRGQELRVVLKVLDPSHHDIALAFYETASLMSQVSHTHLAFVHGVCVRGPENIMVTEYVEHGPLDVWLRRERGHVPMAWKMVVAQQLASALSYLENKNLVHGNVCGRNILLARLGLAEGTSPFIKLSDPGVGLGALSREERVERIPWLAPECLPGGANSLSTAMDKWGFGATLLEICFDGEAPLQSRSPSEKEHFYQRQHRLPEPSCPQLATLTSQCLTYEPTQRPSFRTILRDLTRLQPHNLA

Kd (Tyk2 JH2 Pseudokinase) [nM] | IC50 [1] [nM] | IC50 [2] [nM] | Molecule | block of IL-12/IL-23 and Type I IFN pathways [3] | in vivo efficacy in experimental autoimmune disease models [4]
0.067 | 6.7 | 11 | CNC(=O)c1nnc(Nc2ccc(N3CCC3)cn2)cc1Nc1cccc(-c2ncn(C)n2)c1OC [Example A1, 6-((5-(azetidin-1-yl)pyridin-2-yl)amino)-4-((2-methoxy-3-(1-methyl-1H-1,2,4-triazol-3-yl)phenyl)amino)-N-methylpyridazine-3-carboxamide] | – | –
0.0052 | 5.9 | 83 | [2H]C([2H])([2H])NC(=O)c1nnc(Nc2ccc(N3CC(OC)C3)cn2)cc1Nc1cccc(-c2ncn(C)n2)c1OC [Example A4, 4-((2-methoxy-3-(1-methyl-1H-1,2,4-triazol-3-yl)phenyl)amino)-6-((5-(3-methoxyazetidin-1-yl)pyridin-2-yl)amino)-N-(methyl-d3)pyridazine-3-carboxamide] | – | –

The remaining lines, values behind:

Molecule | Kd (Tyk2 JH2 Pseudokinase) [nM] | IC50 [1] [nM] | IC50 [2] [nM] | block of IL-12/IL-23 and Type I IFN pathways [3] | in vivo efficacy in experimental autoimmune disease models [4]
CNC(=O)c1nnc(Nc2ccc(N3CC(F)(F)C3)cn2)cc1Nc1cccc(-c2ncn(C)n2)c1OC [Example A2, 6-((5-(3,3-difluoroazetidin-1-yl)pyridin-2-yl)amino)-4-((2-methoxy-3-(1-methyl-1H-1,2,4-triazol-3-yl)phenyl)amino)-N-methylpyridazine-3-carboxamide] | 0.0063 | 31 | 25 | – | –
CNC(=O)c1nnc(Nc2cccc(N3CCC3)n2)cc1Nc1cccc(-c2ncn(C)n2)c1OC [Example A3, 6-((6-(azetidin-1-yl)pyridin-2-yl)amino)-4-((2-methoxy-3-(1-methyl-1H-1,2,4-triazol-3-yl)phenyl)amino)-N-methylpyridazine-3-carboxamide] | 0.011 | 15 | 6 | – | –
[2H]C([2H])([2H])NC(=O)c1nnc(Nc2ccc(C3(O)COC3)cn2)cc1Nc1cccc(-c2ncn(C)n2)c1OC [Example A5, 6-((5-(3-hydroxyoxetan-3-yl)pyridin-2-yl)amino)-4-((2-methoxy-3-(1-methyl-1H-1,2,4-triazol-3-yl)phenyl)amino)-N-(methyl-d3)pyridazine-3-carboxamide] | 0.0043 | 38 | 230 | – | –
BMS986165 | – | – | – | effectively block | substantial in vivo efficacy
